According to PMC11207571, “Applicability of MDR1 Overexpressing Abcb1KO-MDCKII Cell Lines for Investigating In Vitro Species Differences and Brain Penetration Prediction” (Pharmaceutics, 2024):

Experiments:
rat Mdr1a [1] = target: T1, rat Mdr1a (Rattus norvegicus, UniProt Q6PSM0); experiment: Bidirectional transport assay, efflux ratio in Abcb1KO-MDCKII rMDR1 cells; conditions: for efflux ratio at 120 min, 1 µM: rat, pH 7.4
Outline: (§1)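 Read-out: SRM mass spectrometry after HPLC separation, with ion transitions tuned per analyte. Pooled samples held three to four compounds each; eluents were water and acetonitrile, both containing 0.1% formic acid.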

human MDR1 [2] = target: T2, human MDR1 (Homo sapiens, UniProt P08183); experiment: Bidirectional transport assay, efflux ratio in Abcb1KO-MDCKII hMDR1 cells; conditions: for efflux ratio at 120 min, 1 µM: human, MDCK-MDR1, pH 7.4
T2 sequence (P08183 whole entry): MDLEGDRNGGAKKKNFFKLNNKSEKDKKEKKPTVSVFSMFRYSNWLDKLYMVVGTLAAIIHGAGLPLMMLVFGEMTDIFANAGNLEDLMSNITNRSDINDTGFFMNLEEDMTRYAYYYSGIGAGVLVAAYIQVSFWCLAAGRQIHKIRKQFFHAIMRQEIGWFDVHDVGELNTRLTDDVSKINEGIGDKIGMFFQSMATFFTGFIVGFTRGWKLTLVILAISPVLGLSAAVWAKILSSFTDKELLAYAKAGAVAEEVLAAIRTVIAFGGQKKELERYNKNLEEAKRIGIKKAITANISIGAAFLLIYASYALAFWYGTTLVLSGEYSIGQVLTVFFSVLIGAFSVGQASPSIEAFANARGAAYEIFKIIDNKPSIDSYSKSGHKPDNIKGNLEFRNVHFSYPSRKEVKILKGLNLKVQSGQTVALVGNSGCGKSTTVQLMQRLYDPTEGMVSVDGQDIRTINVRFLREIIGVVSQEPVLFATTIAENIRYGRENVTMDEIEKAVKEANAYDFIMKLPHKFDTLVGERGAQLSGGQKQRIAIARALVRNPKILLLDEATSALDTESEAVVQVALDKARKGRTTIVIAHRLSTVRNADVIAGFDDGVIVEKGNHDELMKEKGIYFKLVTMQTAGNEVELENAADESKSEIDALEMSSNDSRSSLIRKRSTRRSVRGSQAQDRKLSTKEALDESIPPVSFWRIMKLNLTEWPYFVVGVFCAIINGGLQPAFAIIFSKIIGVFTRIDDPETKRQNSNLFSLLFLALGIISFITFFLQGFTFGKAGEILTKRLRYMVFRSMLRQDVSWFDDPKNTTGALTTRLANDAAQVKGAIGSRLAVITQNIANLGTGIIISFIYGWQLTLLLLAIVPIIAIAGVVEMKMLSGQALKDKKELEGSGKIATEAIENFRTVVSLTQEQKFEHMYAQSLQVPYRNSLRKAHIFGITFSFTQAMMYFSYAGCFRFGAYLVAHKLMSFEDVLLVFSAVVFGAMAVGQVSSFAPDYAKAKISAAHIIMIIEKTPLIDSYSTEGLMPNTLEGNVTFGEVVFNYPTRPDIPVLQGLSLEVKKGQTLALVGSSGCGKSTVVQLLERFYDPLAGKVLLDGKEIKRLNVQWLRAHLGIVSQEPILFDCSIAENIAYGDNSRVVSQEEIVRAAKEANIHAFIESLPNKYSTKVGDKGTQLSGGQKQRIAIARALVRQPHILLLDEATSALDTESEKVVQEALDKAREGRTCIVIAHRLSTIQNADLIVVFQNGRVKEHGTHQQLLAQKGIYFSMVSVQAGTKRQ
Outline: as §1

human BCRP = target: T3, human BCRP (Homo sapiens, UniProt Q9UNQ0); experiment: Bidirectional transport assay, efflux ratio in MDCKII-BCRP cells; conditions: for efflux ratio at 120 min, 1 µM: human, pH 7.4
T3 sequence (Q9UNQ0 1-655): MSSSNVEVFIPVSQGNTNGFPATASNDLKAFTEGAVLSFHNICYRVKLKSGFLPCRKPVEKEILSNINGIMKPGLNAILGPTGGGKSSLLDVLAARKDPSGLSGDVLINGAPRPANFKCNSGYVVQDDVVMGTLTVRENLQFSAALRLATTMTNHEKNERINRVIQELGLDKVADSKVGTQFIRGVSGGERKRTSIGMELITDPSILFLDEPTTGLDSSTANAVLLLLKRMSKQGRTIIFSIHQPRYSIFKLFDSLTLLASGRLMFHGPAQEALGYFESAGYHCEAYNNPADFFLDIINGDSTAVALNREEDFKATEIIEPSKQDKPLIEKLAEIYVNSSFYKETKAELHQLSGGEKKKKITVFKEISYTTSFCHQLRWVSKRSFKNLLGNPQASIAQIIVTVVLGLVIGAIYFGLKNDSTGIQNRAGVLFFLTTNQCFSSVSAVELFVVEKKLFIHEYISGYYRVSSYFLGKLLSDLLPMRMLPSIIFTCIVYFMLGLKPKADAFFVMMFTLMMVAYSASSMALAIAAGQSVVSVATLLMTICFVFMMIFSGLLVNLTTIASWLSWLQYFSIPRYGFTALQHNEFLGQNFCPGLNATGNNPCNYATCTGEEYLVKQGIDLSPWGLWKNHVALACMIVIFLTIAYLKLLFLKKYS
Outline: as §1

mouse Mdr1a [3] = target: T4, mouse Mdr1a (Mus musculus, UniProt P21447); experiment: Bidirectional transport assay, efflux ratio in Abcb1KO-MDCKII mMDR1 cells; conditions: for efflux ratio at 120 min, 1 µM: mouse, pH 7.4
T4 sequence (P21447 whole entry): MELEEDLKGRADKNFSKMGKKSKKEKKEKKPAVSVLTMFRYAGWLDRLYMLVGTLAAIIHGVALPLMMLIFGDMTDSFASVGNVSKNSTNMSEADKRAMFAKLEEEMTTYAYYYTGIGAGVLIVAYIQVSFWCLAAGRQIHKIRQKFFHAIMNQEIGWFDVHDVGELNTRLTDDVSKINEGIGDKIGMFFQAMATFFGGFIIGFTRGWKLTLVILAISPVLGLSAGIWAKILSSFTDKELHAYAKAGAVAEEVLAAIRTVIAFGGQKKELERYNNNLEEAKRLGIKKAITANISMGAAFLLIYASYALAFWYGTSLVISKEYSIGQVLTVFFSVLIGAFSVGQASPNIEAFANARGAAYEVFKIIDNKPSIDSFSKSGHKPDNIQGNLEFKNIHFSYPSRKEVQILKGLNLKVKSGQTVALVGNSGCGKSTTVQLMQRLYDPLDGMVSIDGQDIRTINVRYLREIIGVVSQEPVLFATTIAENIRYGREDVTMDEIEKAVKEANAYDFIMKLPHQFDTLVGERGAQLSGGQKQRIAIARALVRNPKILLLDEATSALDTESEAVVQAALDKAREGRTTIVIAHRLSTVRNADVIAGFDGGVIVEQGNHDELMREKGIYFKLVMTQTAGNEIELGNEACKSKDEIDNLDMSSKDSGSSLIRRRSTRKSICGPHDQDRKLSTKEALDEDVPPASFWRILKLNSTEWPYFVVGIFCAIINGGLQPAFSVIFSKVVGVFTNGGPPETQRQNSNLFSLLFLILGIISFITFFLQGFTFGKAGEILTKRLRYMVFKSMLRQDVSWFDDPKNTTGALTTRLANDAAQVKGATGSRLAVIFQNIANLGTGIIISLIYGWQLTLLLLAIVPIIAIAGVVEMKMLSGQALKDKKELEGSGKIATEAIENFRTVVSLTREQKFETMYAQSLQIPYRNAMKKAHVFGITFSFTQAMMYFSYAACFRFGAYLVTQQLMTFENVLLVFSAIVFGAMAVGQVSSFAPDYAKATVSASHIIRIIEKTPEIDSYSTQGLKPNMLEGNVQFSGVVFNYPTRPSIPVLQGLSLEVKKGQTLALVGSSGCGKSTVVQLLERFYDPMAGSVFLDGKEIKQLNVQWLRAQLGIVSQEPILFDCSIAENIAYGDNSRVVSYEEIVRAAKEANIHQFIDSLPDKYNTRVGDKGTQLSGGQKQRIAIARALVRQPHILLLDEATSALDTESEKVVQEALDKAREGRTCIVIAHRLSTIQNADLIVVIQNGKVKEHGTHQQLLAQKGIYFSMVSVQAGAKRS
Outline: as §1

[4] = test system: Abcb1KO-MDCKII-Mock cells; experiment: Bidirectional transport assay, efflux ratio in Abcb1KO-MDCKII-Mock control cells; conditions: 1 µM, 120 min; mean ± SD
Protocol: (§2) Eluent A consisted of 0.1% formic acid in water, eluent B consisted of 0.1% formic acid in acetonitrile. Then, 10 µL samples were injected into the HPLC-MS/MS system. Mass spectrometric detection was performed in SRM mode, and ion transitions for each analyte were optimized during method development. Samples were analyzed in pools, with each pool containing three to four analytes.

cynomolgus monkey Mdr1 [5] = target: T5, cynomolgus monkey Mdr1 (Macaca fascicularis, UniProt Q8HZQ6); experiment: Bidirectional transport assay, efflux ratio in Abcb1KO-MDCKII cyMDR1 cells; conditions: for efflux ratio at 120 min, 1 µM: cynomolgus monkey, pH 7.4
T5 sequence (Q8HZQ6 1-1283): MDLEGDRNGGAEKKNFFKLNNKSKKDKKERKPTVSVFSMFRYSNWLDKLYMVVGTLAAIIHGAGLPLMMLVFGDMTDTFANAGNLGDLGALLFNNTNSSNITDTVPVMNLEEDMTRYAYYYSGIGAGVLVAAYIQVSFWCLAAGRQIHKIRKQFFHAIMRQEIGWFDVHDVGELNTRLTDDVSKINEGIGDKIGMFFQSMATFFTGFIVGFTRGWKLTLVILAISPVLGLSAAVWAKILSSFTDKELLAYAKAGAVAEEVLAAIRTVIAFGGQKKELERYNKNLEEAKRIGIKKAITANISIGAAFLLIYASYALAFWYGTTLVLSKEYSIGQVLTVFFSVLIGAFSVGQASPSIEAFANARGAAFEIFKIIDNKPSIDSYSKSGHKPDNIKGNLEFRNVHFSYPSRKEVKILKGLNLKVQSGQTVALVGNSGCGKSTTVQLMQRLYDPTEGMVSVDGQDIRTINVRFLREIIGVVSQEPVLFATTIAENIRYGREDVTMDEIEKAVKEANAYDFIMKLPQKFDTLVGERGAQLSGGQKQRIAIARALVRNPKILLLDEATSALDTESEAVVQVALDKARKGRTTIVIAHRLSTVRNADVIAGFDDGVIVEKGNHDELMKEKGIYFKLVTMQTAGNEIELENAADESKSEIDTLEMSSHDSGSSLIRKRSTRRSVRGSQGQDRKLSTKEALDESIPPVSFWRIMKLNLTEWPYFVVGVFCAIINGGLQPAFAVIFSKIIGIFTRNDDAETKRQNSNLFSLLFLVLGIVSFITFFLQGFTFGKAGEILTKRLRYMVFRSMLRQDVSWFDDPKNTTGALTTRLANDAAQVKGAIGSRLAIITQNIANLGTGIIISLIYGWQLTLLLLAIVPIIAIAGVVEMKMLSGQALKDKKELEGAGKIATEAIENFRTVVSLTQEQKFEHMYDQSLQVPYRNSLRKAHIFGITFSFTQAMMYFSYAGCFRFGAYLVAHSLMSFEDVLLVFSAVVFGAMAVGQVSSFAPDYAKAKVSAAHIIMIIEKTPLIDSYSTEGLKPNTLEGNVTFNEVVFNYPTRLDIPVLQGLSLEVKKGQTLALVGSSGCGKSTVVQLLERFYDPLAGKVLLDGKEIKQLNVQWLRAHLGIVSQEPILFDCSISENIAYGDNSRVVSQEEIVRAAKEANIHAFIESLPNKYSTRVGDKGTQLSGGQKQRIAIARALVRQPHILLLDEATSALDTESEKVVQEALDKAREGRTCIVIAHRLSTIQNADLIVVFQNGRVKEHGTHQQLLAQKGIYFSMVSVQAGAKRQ
Outline: as §1

mouse Mdr1a [6] = target: T4, mouse Mdr1a; experiment: Inhibition of 3H-digoxin or 3H-quinidine bidirectional transport in mMDR1 cells; type: cell-based; parameters: mouse Mdr1a (NM_011076.3); expressed in transfected cells; host or cells: Abcb1KO-MDCKII (canine kidney, endogenous Abcb1 knocked out), transduced, single-cell clone; conditions: IC50 from ER
rat Mdr1a [7] = target: T1, rat Mdr1a; experiment: Inhibition of 3H-digoxin or 3H-quinidine bidirectional transport in rMDR1 cells; type: cell-based; parameters: rat Mdr1a (NM_133401.1); expressed in transfected cells; host or cells: Abcb1KO-MDCKII (canine kidney, endogenous Abcb1 knocked out), transduced, single-cell clone; conditions: IC50 from ER
cynomolgus monkey Mdr1 [8] = target: T5, cynomolgus monkey Mdr1; experiment: Inhibition of 3H-digoxin or 3H-quinidine bidirectional transport in cyMDR1 cells; conditions: Inhibition of quinidine transport IC50±SD, cyMDR1, probe 3H-quinidine 0.1 µM, 60 min; IC50 from ER
cynomolgus monkey Mdr1 [9] = target: T5, cynomolgus monkey Mdr1; experiment: cell-based
human MDR1 [10] = target: T2, human MDR1; experiment: Inhibition of 3H-digoxin or 3H-quinidine bidirectional transport in hMDR1 cells; conditions: IC50 from ER
[11] = Bidirectional transport assay, efflux ratio in Abcb1KO-MDCKII-Mock control cells; conditions: dog, MDCK, pH 7.4
Protocol: as §2

hMDR1 and hBCRP = experiment: Brain permeability classification from total ER of hMDR1 and hBCRP against in vivo rodent Kp,uu,brain
Protocol: MDR1 and/or BCRP substrate properties were investigated by binary classification analysis on CNS+ and CNS− compounds. […] True negative (TN), where there was no efflux and the CNS+ compound crossed the BBB. […] The sensitivity and specificity of the estimation of brain penetration along with MDR1 and BCRP activity were calculated from predictive performance metrics.
First, NET ER was calculated and used for human predictions, (2) NET ER=ER(−inh)[…]ER(+inh) where ER(−inh) is ER in the absence of inhibitor, and ER(+inh) is ER in the presence of inhibitor, for hMDR1 (ERMDR1) or hBCRP (ERBCRP).
To identify the correlation between the in vivo rodent Kp,uu,brain and ERs, 58 compounds with known Kp,uu,brain were selected. An ER of 2 was used as a cut-off to classify MDR1 substrates and a Kp,uu,brain of 0.3 was used as a threshold for CNS penetrant compounds. The resulting graphs are thus divided into four quadrants. Brain penetration (Kp,uu,brain) was used as the logical value true condition, with compounds having Kp,uu,brain ≤ 0.3 considered positive. Q2 and Q3 comprise molecules with impaired brain penetration. […] Molecules in Q4 (true negatives, TN) can freely access the brain (Figure 2). Predictive performance metrics were calculated to show the efficacy of the established cell lines in BBB permeability classification (Table 1). Sensitivity refers to the ability of the model to correctly classify CNS-restricted molecules based on MDR1 substrate nature.
Subsequently, for a more reliable prediction of brain penetration, data generated in the hBCRP cell line were included in the analysis. hBCRP assay conditions and evaluations were identical to that of MDR1 cell lines, which allowed proper comparisons (Figure 2E,F). Total ER was calculated by combining ERs determined in BCRP and hMDR1 cell lines based on Equation (3), with an ER cut-off of 3. […] Eventually, total ERs were also assessed with the Relative Expression Factor (REF) (Equation (4); Figure 2E,F). REF is an in vitro and in vivo correlation scaler, calculated from transporter protein abundances in brain microvessels versus overexpressing cell lines.

[12] = total ER cut-off 3, in vivo rodent Kp,uu,brain cut-off 0.3

T1 sequence (Q6PSM0 1-1272): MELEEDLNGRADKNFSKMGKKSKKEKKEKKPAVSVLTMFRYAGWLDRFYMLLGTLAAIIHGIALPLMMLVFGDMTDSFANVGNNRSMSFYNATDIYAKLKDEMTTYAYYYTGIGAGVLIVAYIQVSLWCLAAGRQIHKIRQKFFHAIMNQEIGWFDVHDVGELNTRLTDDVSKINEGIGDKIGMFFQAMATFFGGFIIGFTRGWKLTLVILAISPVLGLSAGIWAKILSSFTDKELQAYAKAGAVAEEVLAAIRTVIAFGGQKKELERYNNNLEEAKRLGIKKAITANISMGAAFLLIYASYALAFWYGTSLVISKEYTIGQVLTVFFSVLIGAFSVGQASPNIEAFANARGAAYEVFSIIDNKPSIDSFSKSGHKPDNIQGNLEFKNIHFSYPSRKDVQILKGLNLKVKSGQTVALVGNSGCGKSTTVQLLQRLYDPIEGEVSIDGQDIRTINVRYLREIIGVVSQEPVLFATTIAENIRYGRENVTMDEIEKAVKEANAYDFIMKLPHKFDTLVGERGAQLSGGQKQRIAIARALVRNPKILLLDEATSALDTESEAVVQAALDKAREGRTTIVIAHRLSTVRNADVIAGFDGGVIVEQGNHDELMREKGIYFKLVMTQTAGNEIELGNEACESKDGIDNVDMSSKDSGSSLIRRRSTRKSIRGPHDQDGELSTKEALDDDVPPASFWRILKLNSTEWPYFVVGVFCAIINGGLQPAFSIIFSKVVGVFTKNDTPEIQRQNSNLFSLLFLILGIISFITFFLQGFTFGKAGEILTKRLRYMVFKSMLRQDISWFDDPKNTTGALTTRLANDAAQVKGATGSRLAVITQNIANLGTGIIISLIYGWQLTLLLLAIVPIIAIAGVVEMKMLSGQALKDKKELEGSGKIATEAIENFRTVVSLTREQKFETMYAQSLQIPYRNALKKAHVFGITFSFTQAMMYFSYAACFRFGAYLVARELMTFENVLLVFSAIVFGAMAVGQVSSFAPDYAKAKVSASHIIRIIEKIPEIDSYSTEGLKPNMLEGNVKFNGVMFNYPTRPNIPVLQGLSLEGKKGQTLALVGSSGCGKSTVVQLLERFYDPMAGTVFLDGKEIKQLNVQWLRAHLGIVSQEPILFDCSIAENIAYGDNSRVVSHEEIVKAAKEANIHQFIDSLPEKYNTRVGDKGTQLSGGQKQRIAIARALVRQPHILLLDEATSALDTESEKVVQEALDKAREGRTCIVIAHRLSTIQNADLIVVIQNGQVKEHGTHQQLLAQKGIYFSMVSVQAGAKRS

| SMILES | efflux ratio at 120 min, 1 µM (rat Mdr1a [1]) | efflux ratio at 120 min, 1 µM (human MDR1 [2]) | efflux ratio at 120 min, 1 µM (human BCRP) | efflux ratio at 120 min, 1 µM (mouse Mdr1a [3]) | efflux ratio at 120 min, 1 µM [11] | CNS penetration classification based on total ER (hMDR1 + hBCRP) (hMDR1 and hBCRP; [12]) | efflux ratio at 120 min, 1 µM (cynomolgus monkey Mdr1 [5]) | further results |
| --- | --- | --- | --- | --- | --- | --- | --- | --- |
| CN(C)CCC=C1c2ccccc2CCc2ccccc21 [Amitriptylline] |  |  |  |  |  |  |  | Efflux Ratio in Abcb1KO-MDCKII rMDR1 (rat Mdr1a [1]; 1 µM, 120 min, mean ± SD): 0.94 ± 0.14; Efflux Ratio in Abcb1KO-MDCKII hMDR1 (human MDR1 [2]; 1 µM, 120 min, mean ± SD): 1.1 ± 0.11; ER in MDCKII BCRP (human BCRP; 1 µM, 120 min, mean ± SD): 0.8 ± 0.07; Efflux Ratio in Abcb1KO-MDCKII mMDR1 (mouse Mdr1a [3]; 1 µM, 120 min, mean ± SD): 0.96 ± 0.12; Efflux Ratio in Abcb1KO-MDCKII Mock [4]: 1.05 ± 0.08; Efflux Ratio in Abcb1KO-MDCKII cyMDR1 (cynomolgus monkey Mdr1 [5]; 1 µM, 120 min, mean ± SD): 0.67 ± 0.08 |
| Cc1ccc(-c2ncc(Cl)cc2-c2ccc(S(C)(=O)=O)cc2)cn1 [Etoricoxib] | 2.01 ± 0.21 | 1.97 ± 0.21 | 2.35 ± 0.25 | 1.72 ± 0.23 | 0.9 ± 0.09 | false positives | 1.24 ± 0.21 | IC50 (mouse Mdr1a [6]; Inhibition of digoxin transport IC50±SD, mMDR1, probe 3H-digoxin 1 µM, 120 min): 57.8 ± 29.8 µM; IC50 (mouse Mdr1a [6]; Inhibition of quinidine transport IC50±SD, mMDR1, probe 3H-quinidine 1 µM, 60 min): 22.2 ± 5.43 µM; IC50 (rat Mdr1a [7]; Inhibition of digoxin transport IC50±SD, rMDR1, probe 3H-digoxin 1 µM, 120 min): 54.6 ± 3.16 µM; IC50 (rat Mdr1a [7]; Inhibition of quinidine transport IC50±SD, rMDR1, probe 3H-quinidine 1 µM, 30 min): 18.8 ± 1.22 µM; IC50 (cynomolgus monkey Mdr1 [8]): 25.9 ± 10.5 µM; IC50 (cynomolgus monkey Mdr1 [9]): 15.5 ± 11.7 µM; IC50 (human MDR1 [10]; Inhibition of digoxin transport IC50±SD, hMDR1, probe 3H-digoxin 1 µM, 120 min): > 100 µM; IC50 (human MDR1 [10]; Inhibition of quinidine transport IC50±SD, hMDR1, probe 3H-quinidine 1 µM, 60 min): > 100 µM |
| CNS(=O)(=O)Cc1ccc2[nH]cc(CCN(C)C)c2c1 [Sumatriptan] | 2.02 ± 0.12 | 1.88 ± 0.12 | 1.74 ± 0.24 | 1.76 ± 0.08 | 0.93 ± 0.04 | false negatives | 1.53 ± 0.1 |  |
| COc1cc(Cc2cnc(N)nc2N)cc(OC)c1OC [Trimethoprim] | 13.2 ± 0.68 | 7.29 ± 0.69 | 3.08 ± 0.17 | 9.04 ± 0.49 | 0.84 ± 0.06 | false positives | 1.65 ± 0.1 |  |
| CC(=O)CC(c1ccccc1)c1c(O)c2ccccc2oc1=O (stereo not drawn) [Warfarin] | 0.6 ± 0.01 | 0.56 ± 0.02 | 4.03 ± 0.29 | 0.58 ± 0.02 | 0.54 ± 0.02 |  | 0.58 ± 0.05 | CNS penetration classification based on total ER (hMDR1 + hBCRP) (hMDR1 and hBCRP; not told): false positives |
